Results taken from US5134150A, “Inhibition of the 5-lipoxygenase pathway” (priority 1989, dated 1992).
Like-named read-outs stand apart in the source and are kept apart here. One block for each compound: values may come before it.

Key:
[1] = system: Arachidonic Acid-Induced Inflammation of the Mouse Ear; test: Arachidonic acid-induced mouse ear inflammation; assay type: in vivo, mouse (male Balb/c); settings: for inhibition in vivo at 50 mg/kg: Mus musculus, 1 h, Table 7A, read-out: % Inhibition of Ear Swelling
From the text: (§1) In the following Examples where mice were used, they were male Balb/c mice (20-28 g), and where rats were used, they were male Lewis rats (180-210 g). All mice and rats were obtained from Charles River Breeding Laboratories, Kingston, N.Y. Within a single experiment, mice and rats were sex and age matched.
(§2) The compounds of Formula (I) were used either as the free base or in the appropriate salt form. Levamisole was used as the hydrochloride salt. The compounds were homogenized in 0.5% tragacanth. Compounds were administered by gavage at the indicated dose in a final volume of 10 ml/kg. Nordihydroguaiaretic acid (NDGA) was solubilized in dimethylacetamide and diluted with olive oil for subcutaneous administration.
Arachidonic acid in acetone ([…]) was applied to the inner surface of the left ear. The thickness of both ears was then measured with a dial micrometer one hour after treatment, and the data were expressed as the change in thickness (10^-3 cm) between treated and untreated ears.
Test compounds were given orally in 0.5% tragacanth at the times indicated in the text prior to the topical application of arachidonic acid.
Parenteral administration of compound was accomplished by subcutaneous injection of solution as indicated.

[2] = system: 5-lipoxygenase and LTA4 synthetase; test: Di-HETE / LTB4 production by high speed supernatant of RBL-1 cells; assay type: biochemical; settings: RBL-1 high speed supernatant; Table 9A; read-out: 5-LO IC50 (LTB4 production)
Procedure: (§3) For in vitro experiments, compounds were dissolved at appropriate concentrations in ethanol or DMSO (dimethylsulfoxide) (final concentration≤1.0%) and then diluted to final concentrations using the buffers indicated in the text.
(§4) The activities of these enzymes in extracts of RBL-1 cells were assayed using the method of Jakschik and Lee, Nature, 287, 51-52 (1980). RBL-1 cells were obtained from the American Type Culture Collection (#CRL 1378) and were grown at 37° C. (5% CO2 in air) in spinner culture in MEM supplemented with 10% heat inactivated fetal calf serum. Harvested cells were washed with 50 mM sodium phosphate buffer, pH 7.0, containing 1 mM EDTA and 0.1% gelatin, resuspended in fresh buffer (5×10^7 cells/ml) and disrupted by nitrogen cavitation using the Parr bomb at 750 psi for 10 min. The broken cell extract was then centrifuged at 10,000× g for 20 minutes (min) and the supernatant centrifuged at 100,000 xIg for 60 min. Aliquots (0.25 mls) of the supernatant were preincubated with or without drugs for 10 min, after which 10 μl CaCl2 (50 mM) was added and the reaction was initiated with 2.5 μl of 2.5 mM arachidonic acid-1-^14 C (final concentration was 25 μM; specific activity 20,000 dpm/nmole). After incubation for 3 min at 37° C., the reaction was terminated by addition of 2 volumes (0.5 ml) ice cold acetone and the sample was allowed to deproteinize on ice for 10 min prior to centrifugation at 1,000× g for 10 min. The deproteinized supernatant was adjusted to pH 3.5 with 2N formic acid and extracted with 2 volumes of ice cold ethyl acetate. The extracted samples were dried under argon, redissolved in ethyl acetate and applied to Whatman LK5D thin layer chromatography (TLC) plates which were developed using the A-9 solvent system [organic phase of ethyl acetate: 2,2,5-trimethylpentane:acetic acid: water (110:50:20:10)] described by Hamberg and Samuelsson, J. Biol. Chem., 241, 257-263 (1966). Arachidonic acid, 5-HETE, LTB4 and PGD2 were quantified with a Berthold LB 2832 autoscanner.
(§5) The 5-lipoxygenase and LTA4 synthetase activities were further studied under the following conditions. An additional centrifugation of the RBL-1 supernatant was run at 100,000× g for 60 min, to remove the particulate cyclooxygenase activity. Sample incubation was done under conditions similar to those described above, i.e., 2 mM CaCl2 and […] arachidonic acid-1-^14 C, however, with an incubation time of 5 min at 5° C. Under these conditions, only the 5-lipoxygenase pathway metabolites were detectable. The 5-HETE and di-HETEs were formed at a linear rate, and substantial amounts of the arachidonic acid-1-^14 C substrate were utilized.

[3] = system: LTC4 production by human monocytes; test: LTC4 production by human monocytes; assay type: cell-based; set-up: key to IC50, LTC4 production: NS = not significant; settings: A23187-stimulated human monocytes; for IC50: Monocyte
Procedure: The compounds of Formula (I) were evaluated for their ability to inhibit the production of LTC4 by human monocytes according to the following assay. Human monocytes were prepared from whole blood supplied by the American Red Cross. The blood was fractinated by a two-step procedure employing sedimentation on Ficoll followed by sedimentation on Percoll. […] Non-adherent cells were removed by washing. […] When drugs were evaluated, they were added to the cells 30 minutes prior to the A23187. Supernatants were collected, […] by centrifugation and stored frozed at -20° C. until assay. The LTC4 content was determined by using a New England Nuclear Leukotriene C-4 (^3 H) RIA Kit as per instructions.

[4] = system: Experimental Allergic Encephalomyelitis Induced in Female Lewis Rats; test: Experimental allergic encephalomyelitis, hindleg paralysis; assay type: in vivo, rat (female Lewis); settings: 0.3 mg/kg/day, p.o.
Procedure: EAE is induced in Female (Charles River) Lewis rats by a single intradermal injection of 0.1 ml of an encephalitogenic emulsion consisting of equial parts of a 50% w/v homogenate of guinea pig spinal cord and mid-brain in 0.5% aqueous phenol and Freund's complete adjuvant (4 mg/ml killed, dried M. butyricum) into a hindpaw (left) footpad. […] Any animal which becomes paralyzed during the course of the experiment is considered to have developed EAE whether or not the paralysis is permanent. Test compounds are administered daily beginning on the day of injection, for 19 days, exclusive of days 5, 6 12 and 13. Drug activity is determined by comparing the indicidence of EAE (paralysis) of the treated group with a control (vehicle) group. The level of significant difference between the treated groups and control groups is determined by a Chi-square test using a 2×2 contingency table. Body weight changes from day 0 are also statistically compared to the control group using a Student "t" test.

[5] = system: Infiltration of Polymorphonuclear Leukocytes into Sites of Carrageenan-Induced Inflammation; test: Mouse carrageenan peritonitis (PMN infiltration); assay type: in vivo, mouse (male Balb/c); settings: carrageenan peritonitis, mice
From the text: as §1, §2
Mice were pretreated with either the test compound or vehicle one hour before the intraperitoneal injection of a 1.0% carrageenan suspension in saline (0.2 ml/mouse). Mice were sacrificed by cervical dislocation two hours after injection, and 3.0 ml of phosphate buffered saline, without Ca^++ or Mg^++, was injected into the peritoneum. Following massage, a 2.0 ml aliquot of the lavage fluid was removed, and the total cell count determined on a Coulter counter and differential cell count determined by microscopic examination of Giesma-stained slides.

psoriasis = settings: in vivo; cited from earlier work
lipoxygenase = settings: in vitro; cited from earlier work
[6] = system: area of infarction following coronary occlusion; settings: dogs; cited from earlier work
5-Lipoxygenase = target: T1, 5-Lipoxygenase (Rattus norvegicus, UniProt P12527); test: 5-HETE production by high speed supernatant of RBL-1 cells; assay type: biochemical; settings: for IC50: RBL-1 high speed supernatant, Table 8A
T1 construct: The activities of these enzymes in extracts of RBL-1 cells were assayed; host or cells: RBL-1
T1 sequence (P12527 1-673): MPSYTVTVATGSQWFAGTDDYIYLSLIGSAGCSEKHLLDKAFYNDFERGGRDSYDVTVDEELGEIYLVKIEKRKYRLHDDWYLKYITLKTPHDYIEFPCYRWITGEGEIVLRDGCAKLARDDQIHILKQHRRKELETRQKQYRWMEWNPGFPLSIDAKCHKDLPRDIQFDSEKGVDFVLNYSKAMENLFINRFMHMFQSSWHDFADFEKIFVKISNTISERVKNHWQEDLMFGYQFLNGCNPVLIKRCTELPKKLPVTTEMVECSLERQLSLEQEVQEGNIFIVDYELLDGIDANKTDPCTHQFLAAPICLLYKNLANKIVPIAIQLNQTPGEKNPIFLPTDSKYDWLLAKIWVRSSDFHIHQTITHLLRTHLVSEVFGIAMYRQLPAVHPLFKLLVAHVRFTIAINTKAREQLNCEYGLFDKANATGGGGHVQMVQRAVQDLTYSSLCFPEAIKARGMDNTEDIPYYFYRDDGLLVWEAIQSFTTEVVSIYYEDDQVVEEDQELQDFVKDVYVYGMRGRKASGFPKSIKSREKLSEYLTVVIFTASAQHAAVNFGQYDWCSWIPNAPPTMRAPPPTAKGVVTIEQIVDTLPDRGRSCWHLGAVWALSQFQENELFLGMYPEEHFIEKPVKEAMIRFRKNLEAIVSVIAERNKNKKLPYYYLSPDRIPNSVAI
Procedure: as §3, §4, §5

[7] = system: LTB4 and 5-HETE production; settings: in vitro; cited from earlier work
rheumatoid arthritis = settings: preliminary observation; cited from earlier work
[8] = 25 mg/kg, p.o., pretreated at 2 hrs

- IC50 [2]: 1.9 µM
- IC50 [3]: 9.9 µM
SMILES: COc1ccc(-c2nc3n(c2-c2ccncc2)CCS3)cc1 [Compound 18]
- inhibition in vivo at 50 mg/kg ([1]; po, 50 mg/kg p.o.): 40%

- IC50 [2]: 1000 µM
- IC50 [3]: 0.5 µM
SMILES: [O-][S+]1CCn2c1nc(-c1ccc(F)cc1)c2-c1ccncc1 (stereo not drawn) [Compound 28, 5-(4-pyridyl)-6-(4-fluorophenyl)-2,3-dihydroimidazo[2,1-b]thiazole-S-oxide]
- inhibition in vivo at 50 mg/kg ([1]; 50 mg/kg s.c. or i.p.): 69%

- IC50 [2]: > 100 µM
- IC50 [3]: 0.5 µM
SMILES: O=S1(=O)CCn2c1nc(-c1ccc(F)cc1)c2-c1ccncc1 [Compound 29, 5-(4-pyridyl)-6-(4-fluorophenyl)-2,3-dihydroimidazo[2,1-b]thiazole-S-dioxide]
- inhibition in vivo at 50 mg/kg ([1]; po, 50 mg/kg p.o.): 67%

- IC50 (5-Lipoxygenase): 28 µM
SMILES: FC(F)(F)c1ccc(-c2nc3n(c2-c2ccc(C(F)(F)F)cc2)CCS3)cc1 [Compound 27]

- IC50 [2]: 0.1 µM
- IC50 [3]: 1.2 µM
SMILES: CCNc1ccc(-c2nc3n(c2-c2ccc(NCC)cc2)CCS3)cc1 [Compound 17]
- inhibition in vivo at 50 mg/kg ([1]; 50 mg/kg s.c. or i.p.): 38%

- IC50 [2]: 17 µM
- IC50, LTC4 production [3]: NS
SMILES: Fc1ccc(-c2c(-c3ccncc3)nc3n2CCS3)cc1 [Compound 12]
- inhibition in vivo at 50 mg/kg ([1]; 50 mg/kg s.c. or i.p.): 58%

- IC50 (5-Lipoxygenase): > 10 µM
- inhibition at 10 µM (5-Lipoxygenase; read-out: inhibition of 5-HETE at 10 μM, 10 μM, Table 8A footnote): 46%
- IC50 [2]: > 10 µM
SMILES: Fc1ccc(-c2nc3n(c2-c2ccc(F)cc2)CCS3)cc1 [Compound 26]

Second part, the compound before the results:

SMILES: CN(Cc1cnc2nc(N)nc(N)c2n1)c1ccc(C(=O)N[C@@H](CCC(=O)O)C(=O)O)cc1 [Methotrexate]
- Hindleg paralysis - cumulative incidence, day 9 to 13 [4]: 0/11
- Hindleg paralysis - cumulative incidence, day 14 to 18 [4]: 0/11

SMILES: C[C@@H]1C[C@H]2[C@@H]3CCC4=CC(=O)C=C[C@]4(C)[C@@]3(F)[C@@H](O)C[C@]2(C)[C@@]1(O)C(=O)CO [Dexamethasone, reference compound]
- PMN infiltration, result in words [5]: effective
- % Change (ear thickness) [1, 8]: -35%
- Increase in Ear Thickness at 1 Hour [1, 8]: 18.2 ± 4.1 × 10-3 cm
- Mouse ear edema, result in words ([1]; mouse, in vivo): only moderately effective

SMILES: CC(C(=O)O)c1ccc2oc(-c3ccc(Cl)cc3)nc2c1 (stereo not drawn) [Benoxaprofen]
- Effect on psoriasis, in words (psoriasis): promising effect
- Lipoxygenase inhibitory activity, in words (lipoxygenase): in vitro lipoxygenase inhibitory activity

SMILES: NC1=NN(c2cccc(C(F)(F)F)c2)CC1 [BW755-C]
- Area of infarction, in words [6]: reduced

SMILES: O=C(O)c1cc(/N=N/c2ccc(S(=O)(=O)Nc3ccccn3)cc2)ccc1O [Sulfasalazine]
- Inhibition of LTB4 and 5-HETE production, in words [7]: inhibit LTB4
- Efficacy in rheumatoid arthritic patients, in words (rheumatoid arthritis): efficacy, including remission
